Source: ChEMBL document CHEMBL1687734, “Pharmacokinetics of EDP-420 after multiple oral doses in healthy adult volunteers and in a bioequivalence study” (Antimicrob Agents Chemother, 2009)
Each block holds one compound with its values, some of them ahead of it.

What was measured:
Format in all cases: ADME, organism-based
[1] = Drug concentration in Alveolar macrophage of healthy human at 500 mg, po administered as single dose after 24 hrs; details: alveolar macrophages, read-out: Drug uptake
[2] = Drug concentration in Epithelial lining fluid of healthy human at 500 mg, po administered as single dose after 24 hrs; details: read-out: Drug uptake
Homo sapiens [3] = test: Half life in healthy human plasma assessed as EDP-420 9-keto level at 200 mg, po administered as once daily for 3 days measured after 3 days; details: in vivo, 72 h
Homo sapiens [4] = test: AUC (0 to last) in healthy human plasma assessed as EDP-420 9-keto level at 200 mg, po once daily for 3 days measured after 3 days; design: dose 200 mg, time 0 - last, route oral; details: in vivo, 72 h
Homo sapiens [5] = test: AUC (0 to last) in 8 hrs fasted healthy human plasma assessed as EDP-420 9-keto level at 200 mg, po administered as single dose of suspension; design: dose 200 mg, time 0 - last, route oral; details: in vivo
Homo sapiens [6] = test: Tmax in healthy human plasma assessed as EDP-420 9-keto level at 200 mg, po once daily for 3 days measured after 3 days; details: in vivo, 72 h
Homo sapiens [7] = test: Cmax in high-fat fed healthy human plasma assessed as EDP-420 9-keto level at 200 mg, po administered as single dose of two-100 mg capsules by HPLC-tandem mass spectrometry; design: dose 200 mg, route oral; details: in vivo
Homo sapiens [8] = test: Tmax in healthy human plasma assessed as EDP-420 9-keto level at 200 mg, po once daily for 3 days measured after 1 day; details: in vivo, 24 h
Homo sapiens [9] = test: Tmax in healthy human plasma assessed as EDP-420 9-keto level at loading dose of 400 mg/day, po once daily for 3 days measured after 1 day; details: in vivo, 24 h
Homo sapiens [10] = test: Cmax in healthy human plasma assessed as EDP-420 9-keto level at 400 mg administered once on day 1 followed by 200 mg once daily for 2 days during 3 days of treatment measured after 3 days by HPLC-tandem mass spectrometry; design: dose 400 mg; details: in vivo, 72 h
Homo sapiens [11] = test: AUC (0 to last) in healthy human plasma assessed as EDP-420 9-keto level at 200 mg, po once daily for 3 days measured after 1 day; design: dose 200 mg, time 0 - last, route oral; details: in vivo, 24 h
Homo sapiens [12] = test: Cmax in healthy human plasma assessed as EDP-420 9-keto level at loading dose of 400 mg/day, po once daily for 3 days measured after 1 day by HPLC-tandem mass spectrometry; design: dose 400 mg/day, route oral; details: in vivo, 24 h
Homo sapiens [13] = test: Tmax in high-fat fed healthy human plasma assessed as EDP-420 9-keto level at 200 mg, po administered as single dose of two-100 mg capsules; details: in vivo
Homo sapiens [14] = test: AUC (0 to infinity) in 8 hrs fasted healthy human plasma assessed as EDP-420 9-keto level at 200 mg, po administered as single dose of suspension; design: dose 200 mg, time infinity, route oral; details: in vivo
Homo sapiens [15] = test: AUC (0 to last) in 8 hrs fasted healthy human plasma assessed as EDP-420 9-keto level at 200 mg, po administered as single dose of two-100 mg capsules; design: dose 200 mg, time 0 - last, route oral; details: in vivo
Homo sapiens [16] = test: Half life in 8 hrs fasted healthy human plasma assessed as EDP-420 9-keto level at 200 mg, po administered as single dose of suspension; details: in vivo
Homo sapiens [17] = test: AUC (0 to infinity) in 8 hrs fasted healthy human plasma assessed as EDP-420 9-keto level at 200 mg, po administered as single dose of two-100 mg capsules; design: dose 200 mg, time infinity, route oral; details: in vivo
Homo sapiens [18] = test: Ratio of drug concentration in high-fat fed healthy human plasma at 200 mg, po administered as single dose of two-100 mg capsules to drug concentration in high-fat fed healthy human plasma assessed as EDP-420 9-keto level at 200 mg, po administered as single dose of two-100 mg capsules; details: in vivo
Homo sapiens [19] = test: Ratio of AUC (0 to 24 hrs) in healthy human plasma assessed as EDP-420 9-keto level at 200 mg, po once daily for 3 days measured on day 3 to AUC (0 to 24 hrs) in healthy human plasma assessed as EDP-420 9-keto level at 200 mg, po once daily for 3 days measured on day 1; details: in vivo
Homo sapiens [20] = test: Half life in high-fat fed healthy human plasma assessed as EDP-420 9-keto level at 200 mg, po administered as single dose of two-100 mg capsules; details: in vivo
Homo sapiens [21] = test: Half life in 8 hrs fasted healthy human plasma assessed as EDP-420 9-keto level at 200 mg, po administered as single dose of two-100 mg capsules; details: in vivo
Homo sapiens [22] = test: AUC (0 to last) in high-fat fed healthy human plasma assessed as EDP-420 9-keto level at 200 mg, po administered as single dose of two-100 mg capsules; design: dose 200 mg, route oral, time 0 - last; details: in vivo
Homo sapiens [23] = test: Cmax in 8 hrs fasted healthy human plasma assessed as EDP-420 9-keto level at 200 mg, po administered as single dose of two-100 mg capsules by HPLC-tandem mass spectrometry; design: dose 200 mg, route oral; details: in vivo
Homo sapiens [24] = test: AUC (0 to infinity) in high-fat fed healthy human plasma assessed as EDP-420 9-keto level at 200 mg, po administered as single dose of two-100 mg capsules; design: dose 200 mg, time infinity, route oral; details: in vivo
Homo sapiens [25] = test: AUC (0 to infinity) in healthy human plasma assessed as EDP-420 9-keto level at 400 mg administered once on day 1 followed by 200 mg once daily for 2 days during 3 days of treatment measured after 3 days; design: dose 400 mg, time infinity; details: in vivo, 72 h
Homo sapiens [26] = test: Half life in healthy human plasma assessed as EDP-420 9-keto level at 400 mg administered once on day 1 followed by 200 mg once daily for 2 days during 3 days of treatment measured after 3 days; details: in vivo, 72 h
Homo sapiens [27] = test: AUC (0 to last) in healthy human plasma assessed as EDP-420 9-keto level at 400 mg administered once on day 1 followed by 200 mg once daily for 2 days during 3 days of treatment measured after 3 days; design: dose 400 mg, time 0 - last; details: in vivo, 72 h
Homo sapiens [28] = test: AUC (0 to infinity) in healthy human plasma assessed as EDP-420 9-keto level at 200 mg, po once daily for 3 days measured after 3 days; design: dose 200 mg, time infinity, route oral; details: in vivo, 72 h
Homo sapiens [29] = test: Cmax in healthy human plasma assessed as EDP-420 9-keto level at 200 mg, po once daily for 3 days measured after 3 days by HPLC-tandem mass spectrometry; design: dose 200 mg, route oral; details: in vivo, 72 h
Homo sapiens [30] = test: Ratio of AUC (0 to 24 hrs) in healthy human plasma assessed as EDP-420 9-keto level at loading dose of 400 mg/day, po administered as single dose measured on 1 day to AUC (0 to 24 hrs) in healthy human plasma assessed as EDP-420 9-keto level at 400 mg administered once on day 1 followed by 200 mg once daily for 2 days during 3 days of treatment measured on day 3; details: in vivo
Homo sapiens [31] = test: Ratio of drug concentration in 8 hrs fasted healthy human plasma at 200 mg, po administered as single dose of suspension to drug concentration in 8 hrs fasted healthy human plasma assessed as EDP-420 9-keto level at 200 mg, po administered as single dose of suspension; details: in vivo
Homo sapiens [32] = test: Cmax in 8 hrs fasted healthy human plasma assessed as EDP-420 9-keto level at 200 mg, po administered as single dose of suspension by HPLC-tandem mass spectrometry; design: dose 200 mg, route oral; details: in vivo
Homo sapiens [33] = test: Cmax in healthy human plasma assessed as EDP-420 9-keto level at 200 mg, po once daily for 3 days measured after 1 day by HPLC-tandem mass spectrometry; design: dose 200 mg, route oral; details: in vivo, 24 h
Homo sapiens [34] = test: Tmax in 8 hrs fasted healthy human plasma assessed as EDP-420 9-keto level at 200 mg, po administered as single dose of two-100 mg capsules; details: in vivo
Homo sapiens [35] = test: Tmax in 8 hrs fasted healthy human plasma assessed as EDP-420 9-keto level at 200 mg, po administered as single dose of suspension; details: in vivo

- concentration at 24 h [1]: 30800 ng/mL
- concentration at 24 h [2]: 90 ng/mL
SMILES: CC[C@H]1OC(=O)[C@H](C)[C@@H](O[C@H]2C[C@@](C)(OC)[C@@H](O)[C@H](C)O2)[C@H](C)[C@@H](O[C@@H]2O[C@H](C)C[C@H](N(C)C)[C@H]2O)[C@](C)(O)C[C@@H](C)CN(C)[C@H](C)[C@@H](O)[C@]1(C)O [AZITHROMYCIN]

- t1/2 (Homo sapiens [3]): 29.5 h
- AUC (Homo sapiens [4]): 2134 ng·h/mL
- AUC (Homo sapiens [5]): 754 ng·h/mL
- Tmax (Homo sapiens [6]): 5 h
- Cmax (Homo sapiens [7]): 36.1 ng/mL
- Tmax (Homo sapiens [8]): 5 h
- Tmax (Homo sapiens [9]): 5 h
- Cmax (Homo sapiens [10]): 47.6 ng/mL
- AUC (Homo sapiens [11]): 461 ng·h/mL
- Cmax (Homo sapiens [12]): 49 ng/mL
- Tmax (Homo sapiens [13]): 6 h
- AUC (Homo sapiens [14]): 842 ng·h/mL
- AUC (Homo sapiens [15]): 745 ng·h/mL
- t1/2 (Homo sapiens [16]): 29.5 h
- AUC (Homo sapiens [17]): 837 ng·h/mL
- Ratio (Homo sapiens [18]): 0.16
- Ratio AUC (Homo sapiens [19]): 1.76
- t1/2 (Homo sapiens [20]): 28.4 h
- t1/2 (Homo sapiens [21]): 30.5 h
- AUC (Homo sapiens [22]): 1220 ng·h/mL
- Cmax (Homo sapiens [23]): 23.7 ng/mL
- AUC (Homo sapiens [24]): 1326 ng·h/mL
- AUC (Homo sapiens [25]): 2228 ng·h/mL
- t1/2 (Homo sapiens [26]): 27.8 h
- AUC (Homo sapiens [27]): 2154 ng·h/mL
- AUC (Homo sapiens [28]): 2209 ng·h/mL
- Cmax (Homo sapiens [29]): 46 ng/mL
- Ratio AUC (Homo sapiens [30]): 1.11
- Ratio (Homo sapiens [31]): 0.1
- Cmax (Homo sapiens [32]): 24.9 ng/mL
- Cmax (Homo sapiens [33]): 30.5 ng/mL
- Tmax (Homo sapiens [34]): 5 h
- Tmax (Homo sapiens [35]): 5 h
SMILES: CC[C@H]1OC(=O)[C@H](C)C(=O)[C@H](C)[C@@H](O[C@@H]2O[C@H](C)C[C@H](N(C)C)[C@H]2O)[C@@]2(C)C[C@@H](C)C(=O)[C@H](C)[C@@H](OC/C(=N\OCc3ccc(-n4cccn4)nc3)CO2)[C@]1(C)O
